From patent US20220274947A1, “NOVEL HETEROARYL-TRIAZOLE COMPOUNDS AS PESTICIDES” (Bayer Aktiengesellschaft, priority 2019, published 2022)

Tests used:
Format in all cases: in vivo
[1] = tested on: Rhipicephalus microplus; test: Rhipicephalus (Boophilus) microplus injection test (BOOPMI Inj); details: 168 h, injection into adult engorged female ticks, egg deposition after 7 days, read-out: activity (efficacy: 100% means all eggs are infertile); for pest or weed control at 0.004 mg: application rate 4 μg/tick; for pest or weed control at 0.02 mg: application rate 20 μg/tick
In short: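 Five engorged adult female R. microplus ticks injected into the abdomen with 1 μL of compound diluted in DMSO, then kept in a climate chamber. Fertile egg deposition checked after 7 days; eggs without visible fertility held until hatching at about 42 days. Efficacy: 100% = all eggs infertile, 0% = all fertile.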

[2] = tested on: Rhipicephalus microplus; test: Rhipicephalus (Boophilus) microplus in-vitro contact test, larval cattle tick, strain Parkhurst (BOOPMI Cont); details: application rate 5 μg/cm^2 (=500 g/ha), tick larvae, after 48 hours, read-out: activity (efficacy: 100% means all larvae are dead or moribund)
In short: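 Acetone solutions dried onto glass tube walls (900 ppm giving 5 μg/cm^2); 20-50 pyrethroid-resistant Parkhurst larvae added per tube and held 48 h at 27° C., 85% relative humidity. Efficacy scored by negative geotaxis as % dead or moribund larvae.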

[3] = tested on: Ctenocephalides felis; test: Ctenocephalides felis oral test (CTECFE Oral); details: 48 h, read-out: activity (mortality)
Procedure: Ctenocephalides felis—Oral Test (CTECFE Oral) Solvent: dimethyl sulfoxide
To produce a suitable preparation of active compound, 10 mg of active compound are dissolved in 0.5 mL solvent, and the concentrate is diluted with cattle blood to the desired concentration.
Approximately 20 adult unfed cat fleas (Ctenocephalides felis) are placed in flea chambers. The blood chamber, sealed with parafilm on the bottom, are filled with cattle blood supplied with compound solution and placed on the gauze covered top of the flea chamber, so that the fleas are able to suck the blood. The blood chamber is heated to 37° C. whereas the flea chamber is kept at room temperature.
After 2 days mortality in % is determined. 100% means all the fleas have been killed; 0% means none of the fleas have been killed.

[4] = tested on: Rhipicephalus sanguineus; test: Rhipicephalus sanguineus in-vitro contact test, adult brown dog ticks (RHIPSA Cont); details: 48 h, after 48 hours, read-out: activity (efficacy: 100% means all ticks are dead or moribund); for pest or weed control at 5 µg/cm2, 500 g/ha: application rate 5 μg/cm^2 (=500 g/ha)
Procedure: Rhipicephalus sanguineus-In-Vitro Contact Tests with Adult Brown Dog Ticks ([…] Cont) 9 mg compound is solved in 1 mL acetone and diluted with acetone to the desired concentration. 250 μL of the test solution is filled in 25 mL glass test tubes and homogeneously distributed on the inner walls by rotation and tilting on a shaking device (2 h at 30 rpm). […] After 48 hours efficacy is determined. The ticks are patted on the ground of the tubes and are incubated on a heating plate at 45-50° C. for at most 5 minutes. Immotile or uncoordinated moving ticks, which are not able to escape the heat by climbing upwards, are marked as dead or moribund.

[5] = tested on: Diabrotica balteata; test: Diabrotica balteata spray test; details: 168 h, wheat seeds, larvae, after 7 days, read-out: activity (efficacy: 100% means all seedlings have grown up like in the untreated, uninfected control); for pest or weed control at 32 µg/disc, 100 g/ha: application rate 100 g/ha (=32 μg/well); for pest or weed control at 160 µg/disc, 500 g/ha: application rate 500 g/ha (=160 μg/well)
In short: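 Wheat seedlings, germinated 1 day on agar, were sprayed with compound in acetone/DMF diluted in water containing emulsifier, then infested with 10-20 Diabrotica balteata larvae. After 7 days efficacy in % was scored: 100% means seedlings grew like the untreated, uninfected control; 0% means none grew.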

[6] = tested on: Myzus persicae; test: Myzus persicae oral test; details: 120 h, read-out: activity (mortality)
Procedure: Myzus persicae—Oral Test Solvent: 100 parts by weight acetone
To produce a suitable preparation of active compound, 1 part by weight of active compound is mixed with the stated amount of solvent, and the concentrate is diluted with water to the desired concentration.
50 μL compound solution is filled in microtiter plates and 150 μL IPL41 insect medium (33%+15% sugar) is added to obtain a total volume of 200 μL per well. Afterwards the plates are sealed with parafilm through which a mixed population of the green peach aphid (Myzus persicae) can suck on the compound preparation.
After 5 days mortality in % is determined. 100% means all aphids have been killed and 0% means none of the aphids have been killed.

[7] = tested on: Musca domestica strain WHO—N; test: Musca domestica test (MUSCDO surface treatment & contact assay); details: exposure 30 minutes, 24 hours after contact, read-out: efficacy (mortality); for mortality at 20 mg/m2: surface concentration 20 mg/m^2, glazed tile
Procedure: Musca domestica Test (MUSCDO Surface Treatment & Contact Assay) Solvent: Aceton+2000 ppm rapeseed oil methyl ester (RME)
In order to produce a sufficient, active ingredient containing solution it is necessary to solve the test compound in the solvent-mix (acetone at 2 mg/ml/RME 2000 ppm). This solution is pipetted onto a glazed tile and after evaporation of the acetone, adult flies of the species Musca domestica strain WHO—N are placed onto the dried surface. The exposure time is 30 minutes. Mortality in percent (%) is determined 24 hours after contact of the insects to the treated surface. 100% mortality means that all tested insects are dead, whereas 0% means that no insect died.

[8] = tested on: Spodoptera frugiperda; test: Spodoptera frugiperda spray test; details: in Zea mays, 168 h, read-out: activity (mortality)
In short: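 Maize leaf sections were sprayed with compound formulated in acetone/DMF and diluted in water containing 1000 ppm emulsifier. Dried leaves were infested with fall armyworm larvae, and percent mortality was scored after 7 days.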

[9] = tested on: Ctenocephalides felis; test: Ctenocephalides felis in-vitro contact test, adult cat flea (CTECFE Cont); details: application rate 5 μg/cm^2 (=500 g/ha), adult cat fleas, after 48 hours, read-out: activity (efficacy: 100% means all fleas are dead or moribund)
Procedure: Ctenocephalides felis—In-Vitro Contact Tests Adult Cat Flea (CTECFE Cont)
9 mg compound is solved in 1 mL acetone and diluted with acetone to the desired concentration. 250 μL of the test solution is filled in 25 mL glass test tubes and homogeneously distributed on the inner walls by rotation and tilting on a shaking device (2 h at 30 rpm). With a compound concentration of 900 ppm, an inner surface of 44.7 cm^2 and a homogeneous distribution, a dose of 5 μg/cm^2 is achieved.
After the solvent has evaporated, each test tube is filled with 5-10 adult cat fleas (Ctenocephalides felis), closed with a perforated lid and incubated in a lying position at room temperature and relative humidity. After 48 hours efficacy is determined. The fleas are patted on the ground of the tubes and are incubated on a heating plate at 45-50° C. for at most 5 minutes. Immotile or uncoordinated moving fleas, which are not able to escape the heat by climbing upwards, are marked as dead or moribund.
An efficacy of 100% means all fleas are dead or moribund; 0% means no fleas are dead or moribund.

[10] = tested on: Aedes aegypti strain MONHEIM; test: Aedes aegypti test (AEDSAE surface treatment & contact assay); details: exposure 30 minutes, 24 hours after contact, read-out: efficacy (mortality); for mortality at 4 mg/m2: surface concentration 4 mg/m^2, glazed tile; for mortality at 20 mg/m2: surface concentration 20 mg/m^2, glazed tile
Procedure: Aedes aegypti Test (AEDSAE Surface Treatment & Contact Assay) Solvent: Aceton+2000 ppm rapeseed oil methyl ester (RME)
In order to produce a sufficient, active ingredient containing solution it is necessary to solve the test compound in the solvent-mix (acetone at 2 mg/ml/RME 2000 ppm). This solution is pipetted onto a glazed tile and after evaporation of the acetone, adult mosquitoes of the species Aedes aegypti strain MONHEIM are placed onto the dried surface. The exposure time is 30 minutes. Mortality in percent (%) is determined 24 hours after contact of the insects to the treated surface. 100% mortality means that all tested insects are dead, whereas 0% means that no insect died.

SMILES: C[C@H](NC(=O)c1cc(Br)cc(C(F)(F)F)c1)c1nc(C2CC2)nn1-c1ccc(C#N)cn1 [I-31]
- pest or weed control at 0.004 mg [1]: 100%
- pest or weed control at 0.02 mg [1]: 100%
- pest or weed control at 5 µg/cm2 [2]: 100%
- mortality at 100 ppm [3]: 100%
- pest or weed control at 5 µg/cm2, 500 g/ha [4]: 80%
- pest or weed control at 32 µg/disc, 100 g/ha [5]: 100%
- mortality at 4 ppm [6]: 100%
- mortality at 20 mg/m2 [7]: 80 to 100%

SMILES: C[C@H](NC(=O)c1cc(Cl)cc(OC(F)F)c1)c1nc(C2CC2)nn1-c1ccc(C#N)cn1 [I-34]
- pest or weed control at 0.004 mg [1]: 100%
- pest or weed control at 0.02 mg [1]: 100%
- pest or weed control at 5 µg/cm2 [2]: 90%
- mortality at 100 ppm [3]: 100%
- pest or weed control at 32 µg/disc, 100 g/ha [5]: 100%
- mortality at 100 g/ha [8]: 100%
- mortality at 20 mg/m2 [7]: 80 to 100%

SMILES: CC(C)c1nc([C@H](C)NC(=O)c2cc(Br)cc(C(F)(F)F)n2)n(-c2ccc(C#N)cn2)n1 [I-20]
- pest or weed control at 5 µg/cm2 [9]: 80%

SMILES: COc1nc([C@H](C)NC(=O)c2cc(Cl)cc(C(F)(F)F)c2)n(-c2ccc(C#N)cn2)n1 [I-10, 3-chloro-N-{(1S)-1-[1-(5-cyanopyridin-2-yl)-3-methoxy-1H-1,2,4-triazol-5-yl]ethyl}-5-(trifluoromethyl)benzamide]
- pest or weed control at 0.004 mg [1]: 100%
- pest or weed control at 0.02 mg [1]: 100%
- pest or weed control at 5 µg/cm2 [2]: 100%
- mortality at 100 ppm [3]: 100%
- pest or weed control at 32 µg/disc, 100 g/ha [5]: 100%
- pest or weed control at 160 µg/disc, 500 g/ha [5]: 100%
- mortality at 4 ppm [6]: 100%
- mortality at 100 g/ha [8]: 100%
- mortality at 500 g/ha [8]: 100%
- mortality at 20 mg/m2 [7]: 80 to 100%

SMILES: C[C@H](NC(=O)c1cc(C#N)cc(C(F)(F)F)c1)c1nc(C2CC2)nn1-c1ccc(C#N)cn1 [I-44]
- pest or weed control at 0.004 mg [1]: 100%
- pest or weed control at 5 µg/cm2 [2]: 100%
- mortality at 100 ppm [3]: 100%
- pest or weed control at 32 µg/disc, 100 g/ha [5]: 100%
- mortality at 0.8 ppm [6]: 90%
- mortality at 100 g/ha [8]: 100%
- mortality at 4 mg/m2 [10]: 80 to 100%
- mortality at 20 mg/m2 [10]: 80 to 100%
- mortality at 4 mg/m2 ([7]; surface concentration 4 mg/m^2, glazed tile): 80 to 100%
- mortality at 20 mg/m2 [7]: 80 to 100%

SMILES: CC(NC(=O)c1cc(Cl)cc(C(F)(F)F)c1)c1nc(C(F)F)nn1-c1ccc(C#N)cn1 (racemic) [I-9]
- pest or weed control at 0.004 mg [1]: 100%
- pest or weed control at 0.02 mg [1]: 100%
- pest or weed control at 5 µg/cm2 [2]: 100%
- mortality at 100 ppm [3]: 100%
- pest or weed control at 32 µg/disc, 100 g/ha [5]: 100%
- pest or weed control at 160 µg/disc, 500 g/ha [5]: 100%
- mortality at 4 ppm [6]: 100%
- mortality at 100 g/ha [8]: 100%
- mortality at 4 mg/m2 [10]: 80 to 100%
- mortality at 20 mg/m2 [10]: 80 to 100%
- mortality at 20 mg/m2 [7]: 80 to 100%

SMILES: C[C@H](NC(=O)c1cc(C(F)(F)F)cc(C(F)(F)F)c1)c1ncnn1-c1cc(C(=O)N(C)CC(F)(F)F)ccn1 [II-88]
- pest or weed control at 5 µg/cm2 [2]: 100%
- pest or weed control at 5 µg/cm2 [9]: 100%
- pest or weed control at 32 µg/disc, 100 g/ha [5]: 100%
- mortality at 4 ppm [6]: 100%
- mortality at 100 g/ha [8]: 100%

SMILES: C[C@H](NC(=O)c1cc(Br)cc(C#N)c1)c1nc(C2CC2)nn1-c1ccc(C#N)cn1 [I-35]
- pest or weed control at 0.004 mg [1]: 100%
- pest or weed control at 0.02 mg [1]: 100%
- pest or weed control at 5 µg/cm2 [2]: 100%
- mortality at 100 ppm [3]: 100%
- pest or weed control at 32 µg/disc, 100 g/ha [5]: 100%
- mortality at 20 mg/m2 [10]: 80 to 100%
- mortality at 20 mg/m2 [7]: 80 to 100%

SMILES: C[C@H](NC(=O)c1cc(Cl)cc(Br)c1)c1nc(C2CC2)nn1-c1ccc(C#N)cn1 [I-32]
- pest or weed control at 0.004 mg [1]: 100%
- pest or weed control at 0.02 mg [1]: 100%
- pest or weed control at 5 µg/cm2 [2]: 100%
- mortality at 100 ppm [3]: 100%
- pest or weed control at 1 µg/cm2, 100 g/ha ([4]; application rate 1 μg/cm^2 (=100 g/ha)): 80%
- pest or weed control at 5 µg/cm2, 500 g/ha [4]: 100%
- pest or weed control at 32 µg/disc, 100 g/ha [5]: 100%
- mortality at 4 ppm [6]: 100%
- mortality at 100 g/ha [8]: 100%

SMILES: CC(C)CNC(=O)c1ccnc(-n2ncnc2[C@H](C)NC(=O)c2cc(C(F)(F)F)cc(C(F)(F)F)c2)c1 [II-90]
- pest or weed control at 5 µg/cm2 [2]: 100%
- pest or weed control at 5 µg/cm2 [9]: 80%
- mortality at 4 ppm [6]: 100%
- mortality at 100 g/ha [8]: 83%
